Results published in patent US9120749B2, “Quinoline derivatives and MELK inhibitors containing the same” (ONCOTHERAPY SCIENCE, INC., priority 2010, dated 2015).

What was measured:
MELK = MELK (Homo sapiens, UniProt Q14680); assay: Kinase assay: MELK activity, phosphorylation of FITC-labeled histone H3 peptide measured by IMAP fluorescence polarization; type: biochemical; settings: read-out: IC50 (μM) (kinase assay)
In short: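 Kinase reactions ran with or without test compound (final DMSO 1%) on a fluorescein-tagged H3 peptide. Progressive binding solution was added to terminate them. After a half-hour room-temperature incubation, polarization was measured.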

T47D cells = assay: Cell-based assay: anti-proliferative activity, Cell Counting Kit-8, 72 hours (T47D); settings: Homo sapiens, T47D, 72 h
In short: (§1)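 First, lysates underwent western blotting with anti-MELK antibody to establish expression. Next, cells went into 96-well plates. Then candidate inhibitors were added. Finally, viability was determined by CCK-8 at 72 h and IC50 computed.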

A549 cells = assay: Cell-based assay: anti-proliferative activity, Cell Counting Kit-8, 72 hours (A549); settings: Homo sapiens, A549, 72 h, 72 hours
In short: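 A549 cells were seeded in 96-well plates and exposed to candidate inhibitors for 72 hours. Cell growth was then measured with Cell Counting Kit-8, and IC50 values were calculated from the resulting growth data.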

HT-1197 cells = assay: Cell-based assay: anti-proliferative activity, Cell Counting Kit-8, 72 hours (HT-1197, negative control without MELK expression); settings: Homo sapiens, HT1197, 72 h, HT1197 cells (negative control), 72 hours
In short: as §1

DU4475 cells = assay: Cell-based assay: anti-proliferative activity, Cell Counting Kit-8, 72 hours (DU4475); settings: Homo sapiens, DU-4475, 72 h

MELK, sequence (Q14680 whole entry, looked up): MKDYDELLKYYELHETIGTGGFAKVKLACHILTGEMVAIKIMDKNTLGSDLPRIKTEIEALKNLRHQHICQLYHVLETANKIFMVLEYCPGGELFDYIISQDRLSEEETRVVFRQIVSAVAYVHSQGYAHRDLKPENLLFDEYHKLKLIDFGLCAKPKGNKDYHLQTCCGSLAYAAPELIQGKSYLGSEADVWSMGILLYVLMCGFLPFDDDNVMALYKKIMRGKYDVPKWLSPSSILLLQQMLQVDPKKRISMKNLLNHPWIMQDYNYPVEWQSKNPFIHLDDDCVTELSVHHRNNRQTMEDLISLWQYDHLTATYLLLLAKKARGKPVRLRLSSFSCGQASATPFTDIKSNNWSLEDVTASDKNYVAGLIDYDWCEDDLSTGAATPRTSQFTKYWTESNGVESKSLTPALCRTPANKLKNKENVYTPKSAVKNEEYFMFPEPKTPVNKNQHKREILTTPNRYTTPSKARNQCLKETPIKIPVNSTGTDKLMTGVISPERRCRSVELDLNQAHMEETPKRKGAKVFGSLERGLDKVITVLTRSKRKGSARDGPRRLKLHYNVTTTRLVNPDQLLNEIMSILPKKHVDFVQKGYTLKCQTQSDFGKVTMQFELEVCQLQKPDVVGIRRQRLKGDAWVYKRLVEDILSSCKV

Row | SMILES | IC50 (MELK) [µM] | IC50 (T47D cells) [µM] | IC50 (A549 cells) [µM] | IC50 (HT-1197 cells) [µM] | IC50 (DU4475 cells) [µM]
1 | O=C(c1cnc2ccc(-c3cc(Cl)c(O)c(Cl)c3)cc2c1N[C@H]1CC[C@H](CN2CCC(O)C2)CC1)C1CC1 (stereo partly drawn) [Example 600, cyclopropyl(6-(3,5-dichloro-4-hydroxyphenyl)-4-((trans-4-((3-hydroxypyrrolidin-1-yl)methyl)cyclohexyl)amino)quinolin-3-yl)methanone] | 0.00073 | 0.078 | 0.12 | 0.76 | 0.029
2 | COC1CCN(C[C@H]2CC[C@H](Nc3c(C(=O)C4CC4)cnc4ccc(-c5cc(F)c(O)c(Cl)c5)cc34)CC2)C1 (stereo partly drawn) [Example 627, (6-(3-chloro-5-fluoro-4-hydroxyphenyl)-4-((trans-4-((3-methoxypyrrolidin-1-yl)methyl)cyclohexyl)amino)quinolin-3-yl)(cyclopropyl)methanone] | 0.024 | 0.15 | 0.11 | 0.55 | 0.083
3 | COC1CCN(C[C@H]2CC[C@H](Nc3c(C(=O)C4CC4)cnc4ccc(-c5cc(Cl)c(O)c(Cl)c5)cc34)CC2)C1 (stereo partly drawn) [Example 598, cyclopropyl(6-(3,5-dichloro-4-hydroxyphenyl)-4-((trans-4-((3-methoxypyrrolidin-1-yl)methyl)cyclohexyl)amino)quinolin-3-yl)methanone] | 0.0023 | 0.18 | 0.13 | 1 | 0.066
4 | NC1CCN(c2ncc(Nc3c(C(=O)C4CC4)cnc4ccc(-c5cc(F)c(O)c(Cl)c5)cc34)cn2)C1 (stereo not drawn) [Example 572, (4-(2-(3-aminopyrrolidin-1-yl)pyrimidin-5-ylamino)-6-(3-chloro-5-fluoro-4-hydroxyphenyl)quinolin-3-yl)(cyclopropyl)methanone] | 0.003 | 0.0076 | 0.03 | 0.37 | 0.011
5 | COc1cc(-c2ccc3ncc(C(=O)C4CC4)c(Nc4ccc(N5CCC(N)CC5)nc4)c3c2)cc(Cl)c1O [Example 550, (4-(6-(4-aminopiperidin-1-yl)pyridin-3-ylamino)-6-(3-chloro-4-hydroxy-5-methoxyphenyl)quinolin-3-yl)(cyclopropyl)methanone] | 0.0057 | 0.1 | 0.58 | 2.7 | 1
6 | CN[C@H]1CC[C@H](Nc2c(C(=O)C3CC3)cnc3ccc(-c4cc(Cl)c(O)c(Cl)c4)cc23)CC1 [Example 510, Cyclopropyl{6-(3,5-dichloro-4-hydroxyphenyl)-4-[trans-4-(methylamino)cyclohexylamino]quinolin-3-yl}methanone] | 0.0019 | 0.054 | 0.12 | 1 | 0.018
7 | CCCC(=O)c1cnc2ccc(-c3cc(F)c(O)c(Cl)c3)cc2c1Nc1ccc(N2CCNCC2)nc1 [Example 623, 1-{6-(3-Chloro-5-fluoro-4-hydroxyphenyl)-4-[6-(piperazin-1-yl)pyridin-3-ylamino]quinolin-3-yl}butan-1-one] | 0.011 | 0.085 | 0.2 | 2 | 0.1
8 | COc1cc(-c2ccc3ncc(C(=O)C4CC4)c(N[C@H]4CC[C@H](CN5CCCC5)CC4)c3c2)cc(Cl)c1O [Example 586] | 0.0028 | 0.38 | 0.2 | 3 | 0.19
9 | NC1CCN(c2ccc(Nc3c(C(=O)C4CC4)cnc4ccc(-c5cc(F)c(O)c(Cl)c5)cc34)cn2)C1 (stereo not drawn) [Example 576, (4-(6-(3-aminopyrrolidin-1-yl)pyridin-3-ylamino)-6-(3-chloro-5-fluoro-4-hydroxyphenyl)quinolin-3-yl)(cyclopropyl)methanone] | 0.0019 | 0.0094 | 0.026 | 0.53 | 0.012
